Common to all, as to assay type: biochemical
The subject of experiment [1] is HaloTag protein available from Promega Corporation. Briefly: Protein trimer formation with HaloTag protein by SDS-PAGE. The settings on record: 4 h incubation at rt, coomassie staining. As for the experimental part:
To a solution of N-tris[(2-carboxyethoxy)methyl]methyl nile red-oxyacetamide (86) (6 mg, 0.0083 mmol) and 18-chloro-3,6,9,12-tetraoxaoctadecan-1-amine (10 mg, 0.029 mmol, 3.5 eq) in DMF (1 mL) are successively added pyridine (5 μL, 0.058 mmol, 7 eq), HOBT (1 M in NMP, 8.3 μL, 0.0083 mmol, 1 eq) and EDC (6 mg, 0.029 mmol, 3.5 eq) at rt. The resulting mixture is stirred overnight. The solvent is evaporated under vacuum and compound (100) isolated by reversed phase HPLC on a C18 column using a linear gradient of water:acetonitrile (from 95:5 to 20:80 in 20 min, 0.08% TFA). The structural ability of compound (100) to trigger the formation of a protein trimer is confirmed by in vitro experiments using the fusion protein H2. 10 μL of a 70 μM solution of HaloTag protein available from Promega Corporation and 1.8 μL of a 230 μM solution of compound (100) is added to 3.2 μL of a solution of 50 mM Tris-HCl pH 7.5; 100 mM NaCl; 0.1% Tween20; 1 mM DTT. Following a 4 h incubation at rt, 15 μL of a solution of 100 mM Tris-HCl pH 6.8; 2% SDS; 35% glycerol; 10 mM EDTA; 20 mM DTT is added. Then the mixture is boiled for 5 min at 95° C. After cooling to rt, 25 μL of this solution is loaded on a 4-20% linear gradient SDS-PAGE gel. After electrophoresis, the proteins are coomassie stained in gel to visualize protein trimer.

Experiment [2] has as its system fusion protein CLIP-FRB and the fusion protein SNAP-FKBP. Briefly: Protein dimer formation with CLIP-FRB and SNAP-FKBP by SDS-PAGE. Conditions: overnight incubation at 4° C., coomassie staining. As for the experimental part:
The structural ability of compound (104) and (105) to trigger the formation of a protein dimer is confirmed by in vitro experiments using the fusion protein CLIP-FRB and the fusion protein SNAP-FKBP. 1 μL of a 591 μM solution of FKBP protein fused to a variant of AGT available from Covalys as SNAP26, 10 μL of a 52.9 μM solution of FRB protein fused to a variant of AGT available from Covalys as CLIP and 1 μL of a 62.5 μM solution of mixture of compounds (104) and (105) is added to 3 μL of a solution of 50 mM Tris-HCl pH 7.5; 100 mM NaCl; 0.1% Tween20; 1 mM DTT. Following overnight incubation at 4° C., 15 μL of a solution of 100 mM Tris-HCl pH 6.8; 2% SDS; 35% glycerol; 10 mM EDTA; 20 mM DTT is added. Then the mixture is boiled for 5 min at 95° C. After cooling to rt, 25 μL of this solution is loaded on a 4-20% linear gradient SDS-PAGE gel. After electrophoresis, the proteins are coomassie stained in gel to visualize protein dimer.

The subject of the next experiment is fusion protein CLIP-FRB. The experiment can be described thus: Protein trimer formation with CLIP-FRB by SDS-PAGE. Conditions: 4 h incubation at rt, coomassie staining. As for the experimental part: To a solution of N-tris[(2-carboxyethoxy)methyl]methyl nile red-oxyacetamide (86) (10 mg, 0.014 mmol) and BC-PEG12-NH2 (98) (41 mg, 0.049 mmol, 3.5 eq) in DMF (1 mL) are successively added DIPEA (8.1 μL, 0.049 mmol, 3.5 eq), HOBT (1 M in NMP, 14 μL, 0.014 mmol, 1 eq) and EDC (10 mg, 0.049 mmol, 3.5 eq) at rt. The resulting mixture is stirred overnight. The solvent is evaporated under vacuum and compound (99) isolated by reversed phase HPLC on a C18 column using a linear gradient of water:acetonitrile (from 95:5 to 20:80 in 20 min, 0.08% TFA). The structural ability of compound (99) to trigger the formation of a protein trimer is confirmed by in vitro experiments using the fusion protein CLIP-FRB. 20 μL of a 52.9 μM solution of FRB protein fused to a variant of AGT available from Covalys under the trade name CLIP and 2 μL of a 100 μM solution of compound (99) is added to 3 μL of a solution of 50 mM Iris-HCl pH 7.5; 100 mM NaCl; 0.1% Tween20; 1 mM DTT. Following a 4 h incubation at rt, 15 μL of a solution of 100 mM Tris-HCl pH 6.8; 2% SDS; 35% glycerol; 10 mM EDTA; 20 mM DTT is added. Then the mixture is boiled for 5 min at 95° C. After cooling to rt, 25 μL of this solution is loaded on a 4-20% linear gradient SDS-PAGE gel. After electrophoresis, the proteins are coomassie stained in gel to visualize protein trimer.

In experiment [3] the test system is FKBP protein fused to a variant of AGT available from Covalys as SNAP26 (SNAP-FKBP). Briefly: Reactivity with FKBP-AGT fusion protein: protein trimer formation by SDS-PAGE and coomassie staining. Conditions: 4 h incubation at rt; SDS-PAGE, coomassie staining. As for the experimental part:
1 μL of a 591 μM solution of FKBP protein fused to a variant of AGT available from Covalys as SNAP26 and 1 μL of a 100 μM solution of compound (89), (90), (91), (92) or (96) are added to 8 μL of a solution of 50 mM Tris-HCl pH 7.5; 100 mM NaCl; 0.1% Tween20; 1 mM DTT. Following a 4 h incubation at rt, 15 μL of a solution of 100 mM Tris-HCl pH 6.8; 2% SDS; 35% glycerol; 10 mM EDTA; 20 mM DTT is added. The mixture is boiled for 5 min at 95° C. After cooling to rt, 25 μL of this solution is loaded on a 4-20% linear gradient SDS-PAGE gel. After electrophoresis, the proteins are coomassie stained in gel to visualize protein trimer.

Eight molecules from patent US20110014196A1, “Drug Transfer into Living Cells” (priority 2007, published 2011) can be followed below.

Chain of FKBP protein fused to a variant of AGT available from Covalys as SNAP26 (SNAP-FKBP) (P16455 1-182 C62A/K125A/A127T/R128A/G131K/G132T/M134L/R135S/C150S/N157G/S159E limits assumed): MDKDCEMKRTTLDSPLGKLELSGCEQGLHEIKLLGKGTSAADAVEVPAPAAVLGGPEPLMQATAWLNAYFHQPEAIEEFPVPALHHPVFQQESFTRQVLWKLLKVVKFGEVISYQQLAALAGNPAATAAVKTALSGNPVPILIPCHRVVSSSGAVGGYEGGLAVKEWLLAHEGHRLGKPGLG
Chain of fusion protein CLIP-FRB (P16455 1-182 with the stated changes limits assumed): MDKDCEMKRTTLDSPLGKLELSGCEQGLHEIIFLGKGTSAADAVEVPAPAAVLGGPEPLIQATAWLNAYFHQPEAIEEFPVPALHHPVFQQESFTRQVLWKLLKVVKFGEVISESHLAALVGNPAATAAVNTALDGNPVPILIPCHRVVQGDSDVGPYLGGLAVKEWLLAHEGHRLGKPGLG

As to `CCN(CC)c1ccc2nc3c4cc(OCC(=O)NC(COCCC(=O)NCCOCCOCCOCCOCCCCCCCl)(COCCC(=O)NCCOCCOCCOCCOCCCCCCCl)COCCC(=O)NCCOCCOCCOCCOCCCCCCCl)ccc4c(=O)cc-3oc2c1` [Compound 100, N-Tris-{[2-(halo-PEG4-NH-carbonyl)ethoxyl]methyl}methyl nile red-oxyacetamide], the “structural ability to trigger the formation of a protein trimer” value (from here on “structural ability … of a protein trimer”) in experiment [1] was “confirmed”.
For `CN(C)c1ccc2c(-c3ccc(C(=O)NC(CCC(=O)NCc4ccc(COc5nc(N)nc6[nH]cnc56)cc4)C(=O)NCc4ccc(COc5nccc(N)n5)cc4)cc3C(=O)[O-])c3ccc(N(C)C)cc3[o+]c2c1` (centres unmarked) [Compound 104, N5-{4-[(2-amino-9H-purin-6-yloxy)methyl]benzyl}-N1-{4-[(4-aminopyrimidin-2-yloxy)methyl]benzyl}-2-tetramethylrhodamine-5-carboxamido-pentanediamide], in experiment [2], the “structural ability to trigger the formation of a protein dimer” value was “confirmed”.
Take “N-Tris-{[2-(BC-PEG12-NH-carbonyl)ethoxyl]methyl}methyl nile red-oxyacetamide [Compound 99]”: the “structural ability … of a protein trimer” value in the experiment with fusion protein CLIP-FRB is on record as “confirmed”.
With “N-Tris-{[2-(BG-PEG12-NH-carbonyl)ethoxy]methyl}methyl 3-[2-(2-maleimidoethyl)disulfanyl]propanoylamide [Compound 96]”, in experiment [3], the “structural ability … of a protein trimer” value is listed as “confirmed”.
Same read-out and setting: the same measure for “N-Tris-{[2-(BG-PEG12-NH-carbonyl)ethoxy]methyl}methyl 5-maleimido-pentanecarboxamide [Compound 92]”: “confirmed”; for “N-Tris-{[2-(BG-PEG12-NH-carbonyl)ethoxy]methyl}methyl 7-(diethylamino)-coumarin-3-carboxamide [Compound 89]”: “confirmed”; for “N-Tris-{[2-(BG-PEG12-NH-carbonyl)ethoxy]methyl}methyl ATTO-495-carboxamide [Compound 90]”: “confirmed”.
As for “N-Tris-{[2-(BG-PEG12-NH-carbonyl)ethoxy]methyl}methyl nile red-oxyacetamide [Compound 91]”, the “structural ability … of a protein trimer” value in experiment [3] is listed as “confirmed”.
